According to patent US20160303189A1, “Applications of Recombined Ganoderma Lucidum Immunoregulation Protein in Preparing Drugs for Treating Tissue Fibrosis” (priority 2014, published 2016):

Assays:
Format in all cases: in vivo
[1] = system: mice (renal fibrosis model); assay: Model making of renal fibrosis of mice with cisplatin (CDDP), survival and weight
Description: The number of mice in each group was 12, 12 and 12. They were given intraperitoneal injections for 200 μl/per time/per mouse for 5 consecutive days, and the injectionvolumes contained the appropriate doses of cisplatin (CDDP). On the 1st, the 3rd, the 5th, the 7th, the 14th and the 28th days the mice were weighed and the statistics for the survival rates in each group were recorded.

[2] = system: BLM-induced pulmonary fibrosis; assay: Effect of rLZ-8 on BLM-induced pulmonary fibrosis of mice, Szapiel grading; conditions: Group F: positive drug dexamethasone 4 mg/kg injected, n=12
Description: Experiment groups: there were 7 groups in the experiment and 12 mice in each group. The groups were a saline group (group A), a model group (group B), a low treatment dose group (group C), a medium dose group (group D), a high dose group (group E), a positive control group (group F) and an administration group one week after modeling (group G). The process of modeling was the same as the embodiment 1.
Treating process: groups B, C, D, E, F and G all adopted low BLM dose for modeling. Group A and Group B were injected with saline for serving as contrast groups; Groups C, D and E were injected with rLZ-8 each day for treatment. Mice in these groups were weighed every 3 days and drugs were administrated according to weights of the mice. The dose for Group C was 3.84375 μg/kg, the dose for Group D was 7.6875 μg/kg, the dose for Group E was 19.21875 μg/kg, Group F were injected with positive drug dexamethasone 4 mg/kg, Group G were injected with rLZ-8 for treatment 1 week after modeling and the dose was 7.6875 μg/kg.
On the 14th day and the 21st day, 6 mice were randomly picked and killed in each group. Lungs of the mice were taken out to watch the color of the lungs, if the surface was intact or not, and the changes in the lung surface; parts of the lung tissue were paraffin sectioned and HE stained to be examined histologically; other parts were done with RT-PCR to examine the RNA level. According to histological analysis, RNA level, protein level and the change in the amount of inflammatory cells, the grades of fibrosis were decided.

[3] = system: Dox-induced myocardial damage; assay: Treatment effect of rLZ-8 on Dox-induced myocardial damage in mice; conditions: Group H: 10 mg/kg fosinopril sodium tablets, intragastric, every two days
Description: Experiment grouping: there were 8 experimental groups, 10 mice/per group, saline group (Group A), model group (Group B), rLZ-8 3 μg/kg (Group C), rLZ-8 6 μg/kg(Group D), rLZ-8 12 μg/kg (Group E), rLZ-8 24 μg/kg (Group F), rLZ-8 48 μg/kg (Group G) and positive control group (Group H).
Treating process: The model making process was the same as embodiment 3. The models for groups B, C, D, E, F, G and H were made with 3 mg/kg Dox, and then as control groups, Groups A and B were given intraperitoneal injection of saline once every day, and Groups C, D, E, G and H were treated with rLZ-8, intravenous injection once every 2 days. The mice were weighed every 3 days and drugs were delivered in accordance with weights. The dose for Group C was 3 μg/kg, Group D was 6 μg/kg, Group E was 12 μg/kg, Group F was 24 μg/kg, Group G was 48 μg/kg, and as the positive control group, every two days the mice in Group H were given 10 mg/kg fosinopril sodium tablets by way of intragastric administration.
Experiment records: The deaths of the mice were recorded at 9:00 and 17:00 every day and activities of the mice were closely watched. […] The myocardial tissues were made into paraffin sections and were treated with HE staining and trichrome staining to do histological examinations.
Experimental results: In order to examine myocardial fibrosis grades of the mice and myocardial fibrosis status, in the seventh week, samples were taken according to the mortality rates. […] Sample taking: the mice were killed with the right amount of anesthetic injections and hearts of the mice were isolated under sterile conditions and rinsed with cold PBS, and then blood was blotted up filter paper. The ventricles were selected and crosscut at a 1/2 section. The myocardial tissue was put into 4% paraformaldehyde solution to be fixed, then it was paraffin sectioned and HE stained. Three slices were cut from each tissue and stained under the same conditions. The myocardial tissue of the mice was Masson stained and was photographed under 20 times 40 times microscopes and statistics were recorded.

[4] = system: model rats with liver fibrosis; assay: Effects of rLZ-8 on serum ALT, AST and ALB of CCl4 model rats with liver fibrosis; conditions: Group C: glycyrrhizin (Ganlixin) 12.5 mg/kg s.c. once a day
Description: (§1) Experiment grouping: model group, positive drug group and the treatment group were given subcutaneous injection of 50% volume fraction carbon tetrachloride olive oil solution, twice a week, starting 8:00 in the morning on Mondays and Thursdays, lasting for 8 weeks to replicate the cirrhosis model. For the first time the dose was 0.5 ml/100 g in accordance with weights of the mice, then 0.3 ml/100 g every four days in accordance with weights of the mice. They ate and drank water freely. At the same time on Mondays changes in rats' weights were monitored and the possibility of liver failure was preliminary estimated in order to reduce the mortality rated caused by replicating the cirrhosis model.
(§2) Treating process: In the control group (group A), the model group (group B), the positive drug group (glycyrrhizin group C), the low-dose treatment group (group D), the medium-dose treatment group (group E) and the high-dose treatment group (group F), 8 weeks after the cirrhosis models were built, the rats were anesthetized with ether, blood was drawn from retinal venous plexus to test serum liver biochemical indicators; the positive drug group were given subcutaneous injection of Ganlixin solution, the injection volume was 12.5 mg/kg. The process was performed once a day, lasting for 4 weeks; for the low, medium and high rLZ-8 dose groups, the concentration of subcutaneous injections were 15 μg/kg, 30 μg/kg and […] respectively; the injections were given once a day for 4 weeks; till the end of the 12th week, the mice were denied food but not water for 18 hours and anesthetized with ether. The eyeball blood of the rats was drawn, about […] samples of blood were centrifuged to get serum and then were put into a −20° C. deep freezer to be tested for serum biochemical indexes.
In the present experiment, the rats' liver fibrosis models were replicated by CCl4: olive oil (1:1) for 8 weeks. […] Compared with the control group, the difference was obvious and was statistically significant. The effect of medium dose rLZ-8 was the best.

[5] = system: model rats with liver fibrosis; assay: Effects of rLZ-8 on body mass, liver weight and liver indexes of CCl4 model rats with liver fibrosis; conditions: 4 weeks
Description: as §1, §2

[6] = system: lung tissue of mice (pulmonary fibrosis model); assay: Model building of pulmonary fibrosis by BLM atomization, Szapiel grading of lung sections; conditions: for number of mice with Szapiel grade 0 (no alveolitis or fibrosis) / number of mice with Szapiel grade I (mild alveolitis or fibrosis) / number of mice with Szapiel grade II (medium alveolitis or fibrosis) / number of mice with Szapiel grade III (severe alveolitis or fibrosis): n=12
Description: 1) Modeling experiment grouping: Three groups were classified, a saline group (group A), a low BLM dose group (group B 4 mg/mL), a high BLM dose group (group C 8 mg/Ml), there were 12 mice in each group. The 12 mice in each group were divided into two groups, with 6 mice in each group and the two groups of mice were respectively put into 20×20×20 cm transparent glass containers with corresponding marks, then saline and BLM was sprayed respectively into the containers with medical ultrasonic nebulizers.
2) Model administration process: Each time the spray volume was 1 ml, then a glass cover was closed for 15 minutes and the mice were put back into cages to rest for 5 minutes, and the procedure was repeated 6 times.
The mice were killed respectively after 3 days, 7 days, 14 days and 21 days of feeding, and the lungs of the mice were taken out to see changes in appearance, color and the lung surface; after the lungs were taken out, broncho-alveolar lavage was done first, and then parts of the lung tissue were sliced into paraffin sections and histological examination was done on HE stain; RT-PCR was done on another parts of lung tissue to examine RNA level. Judged from histological analysis, RNA level, protein level and changes in amounts of inflammatory cells, a decision was made to see whether the model of pulmonary fibrosis is usable. The table below is the grading standards made by method of Szapiel to evaluate grading standard of seriousness of the pathological changes in the lung tissue.
There are 4 grades in Szapiel's pathological changes in lung tissue: “0” is grade 1; “I” is grade 2; “II” is grade 3; and “III” is grade 4. The higher the grade, the severer the degree of fibrosis is.

[7] = Group C: glycyrrhizin (Ganlixin solution) 12.5 mg/kg subcutaneous once a day
[8] = High BLM group, 8 mg/mL atomization
[9] = Low BLM group, 4 mg/mL atomization

N.N.[Cl][Pt][Cl] [cisplatin]
survival rate ([1]; CDDP 5 mg/kg intraperitoneal, 5 consecutive days, 28th day): 90%
survival rate ([1]; CDDP 7 mg/kg intraperitoneal, 5 consecutive days, 7th day): 60%
mice survived ([1]; CDDP 7 mg/kg intraperitoneal, 5 consecutive days, 28th day): 30%
effect on weight of mice ([1]; cisplatin 5 mg/kg doses): weight loss

C[C@@H]1C[C@H]2[C@@H]3CCC4=CC(=O)C=C[C@]4(C)[C@@]3(F)[C@@H](O)C[C@]2(C)[C@@]1(O)C(=O)CO [dexamethasone]
number of mice with Szapiel grade 0 (no fibrosis) [2]: 0
number of mice with Szapiel grade I (mild) [2]: 3
number of mice with Szapiel grade II (medium) [2]: 5
number of mice with Szapiel grade III (severe) [2]: 4

CCC(=O)O[C@@H](O[P@](=O)(CCCCc1ccccc1)CC(=O)N1C[C@H](C2CCCCC2)C[C@H]1C(=O)O)C(C)C [fosinopril sodium]
Deaths [3]: 0
Number of Mice (sampled in week 7 according to mortality, 10 mice per group at start) [3]: 7
Interstitial Fibrosis grade 0, number of mice ([3]; week 7): 6
Interstitial Fibrosis grade +++, number of mice ([3]; week 7): 0
Interstitial Fibrosis grade ++, number of mice ([3]; week 7): 0
Interstitial Fibrosis grade +, number of mice ([3]; week 7): 1
Perivascular Fibrosis grade 0, number of mice ([3]; week 7): 5
Perivascular Fibrosis grade +++, number of mice ([3]; week 7): 0
Perivascular Fibrosis grade ++, number of mice ([3]; week 7): 1
Perivascular Fibrosis grade +, number of mice ([3]; week 7): 1
Vacuolization grade 0, number of mice ([3]; week 7): 6
Vacuolization grade +++, number of mice ([3]; week 7): 0
Vacuolization grade ++, number of mice ([3]; week 7): 1
Vacuolization grade +, number of mice ([3]; week 7): 0

CC1(C)[C@@H](O[C@H]2O[C@H](C(=O)O)[C@@H](O)[C@H](O)[C@H]2O[C@@H]2O[C@H](C(=O)O)[C@@H](O)[C@H](O)[C@H]2O)CC[C@]2(C)[C@H]3C(=O)C=C4[C@@H]5C[C@@](C)(C(=O)O)CC[C@]5(C)CC[C@@]4(C)[C@]3(C)CC[C@@H]12 [glycyrrhizin]
serum ALB ([4]; Day 10): 34.8 ± 0.2 g/L
serum ALT ([4]; Day 10): 143.3 ± 0.9 U/L
serum AST ([4]; Day 10): 176.2 ± 6.1 U/L
serum ALB ([4]; Day 20): 30.0 ± 0.2 g/L
serum ALT ([4]; Day 20): 126.2 ± 1.3 U/L
serum AST ([4]; Day 20): 205.8 ± 4.2 U/L
serum ALB ([4]; Day 30): 32.5 ± 0.1 g/L
serum ALT ([4]; Day 30): 49.5 ± 0.6 U/L
serum AST ([4]; Day 30): 59.0 ± 1.9 U/L
Model weight ([5]; Group C: glycyrrhizin (Ganlixin solution) 12.5 mg/kg s.c. once a day, weight after modelling): 303.5 ± 39.2 g
Final weights [5, 7]: 397.1 ± 46.4 g
Liver indexes [5, 7]: 3.1 ± 0.4%
Liver weights [5, 7]: 12.43 ± 2.25 g

bleomycin [BLM]
number of mice with Szapiel grade 0 (no alveolitis or fibrosis) [6, 8]: 0
number of mice with Szapiel grade I (mild alveolitis or fibrosis) [6, 8]: 1
number of mice with Szapiel grade II (medium alveolitis or fibrosis) [6, 8]: 2
number of mice with Szapiel grade III (severe alveolitis or fibrosis) [6, 8]: 9
number of mice with Szapiel grade 0 (no alveolitis or fibrosis) [6, 9]: 0
number of mice with Szapiel grade I (mild alveolitis or fibrosis) [6, 9]: 3
number of mice with Szapiel grade II (medium alveolitis or fibrosis) [6, 9]: 8
number of mice with Szapiel grade III (severe alveolitis or fibrosis) [6, 9]: 1
deaths of mice ([6]; high BLM dose group, 8 mg/mL): most of them died of respiratory failures
lung sections of the mice showing severe fibrosis ([6]; high BLM dose group, 8 mg/mL): 75%
lung sections of the mice showing medium fibrosis ([6]; low BLM dose group, 4 mg/mL): 66%
